Laboratory results: paper PMC9407317 (Proceedings of the National Academy of Sciences of the …, 2022)

Columns and labels:
SK4 K+ channel [1] = target: T1, SK4 K+ channel (Homo sapiens, UniProt O15554); experiment: whole-cell patch clamp; format: cell-based; details: read-out: % inhibition at 0.5 μM
SK4 K+ channel [2] = target: T1, SK4 K+ channel; format: cell-based

T1 sequence (O15554 whole entry): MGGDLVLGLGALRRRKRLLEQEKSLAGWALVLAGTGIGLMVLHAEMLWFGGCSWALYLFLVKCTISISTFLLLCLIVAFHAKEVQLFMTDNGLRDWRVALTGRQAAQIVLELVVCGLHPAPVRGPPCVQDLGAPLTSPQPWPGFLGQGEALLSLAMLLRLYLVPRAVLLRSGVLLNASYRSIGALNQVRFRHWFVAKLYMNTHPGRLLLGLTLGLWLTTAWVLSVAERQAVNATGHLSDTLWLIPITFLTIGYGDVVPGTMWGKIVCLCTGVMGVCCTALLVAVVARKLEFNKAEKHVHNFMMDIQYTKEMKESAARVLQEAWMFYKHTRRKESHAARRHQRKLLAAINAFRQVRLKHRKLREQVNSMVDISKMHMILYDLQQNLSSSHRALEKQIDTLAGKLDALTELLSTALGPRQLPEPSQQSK

| EC50 (SK4 K+ channel [2]) | SMILES | inhibition at 0.5 µM (SK4 K+ channel [1]) |
| --- | --- | --- |
| – | Clc1ccccc1C(c1ccccc1)(c1ccccc1)n1cccn1 [Tram-34] | 86% |
| 0.154 µM | CCCCCCCC(=O)OC[C@H](COP(=O)(O)O[C@@H]1[C@H](O)[C@H](O)[C@@H](OP(=O)(O)O)[C@H](OP(=O)(O)O)[C@H]1O)OC(=O)CCCCCCC [diC8-PIP2] | – |
